# Test results reported in publication PMC9232501, “Results of the phase I CCTG IND.231 trial of CX-5461 in patients with advanced solid tumors enriched for DNA-repair deficiencies” (Nature Communications, 2022).
# “And” between values parts separate entries of the source, which are not always exact repeats. Equal values may be shown once.
# Test system: HCT116 cells
# Experiment: HCT116 cytotoxicity (WST-1 assay) with and without UVA radiation
# Format: cell-based, Human
# Conditions: for potentiation of UVA-induced cytotoxicity: UV 5 mJ/cm^2 and 125 mJ/cm^2; for WST-1 raw signal (Figure 5d) / WST-1 raw signal (Figure 5b): replicates
# Procedure: Fig. 5 Comparison of G4 ligand photosensitization. […] Vertical axis, fractional survival, horizontal axis log10 drug concentration (M) (f) Representative images of CPD immunofluorescent staining under UV and drug treatment conditions for U2OS cells, quantified from biological duplicates in (g) (h) Scale bar = 100um. U2OS cells were treated with drug or vehicle control, then immediately irradiated with UVA 125 mJ/cm^2; and fixed 1 h later for immunofluorescence staining with CPD antibody. g Distribution of mean intensity of CPD level per cell (total n = in labels), with two biological repeats per condition. Vertical axis, mean CPD intensity per cell, horizontal axis, conditions (h) WT or KO XPA HAP1 cells assayed for cytotoxicity. Vertical axis, fractional survival (WST-1 assay). The horizontal axis, log10 drug concentration (M). Error bars = standard deviation of the mean. Three biological repeats per condition.
# Human epidermal keratinocytes (HEKa) cells were sourced from Thermo Fisher Scientific, and were grown in EpiLife™ Medium with HKGS. HAP WT and XPA knockout cell lines (Horizon Discovery) were cultured in IMDM, 10% FCS. Human HCT116 cells, U2OS cells (ATCC) were grown in McCoy’s 5 A medium with 10% FBS and L-glutamine. All cell lines are mycoplasma free and have been authenticated by STR or SNP profiling. CX-5461 was provided by Senhwa Biosciences, Inc. PDS is from Sigma-Aldrich, BRACO-19 from Alfa Chemistry, PhENDC3 is from Sigma-Aldrich, γ -H2AX antibody from Abcam (1:1000 for IF) and CPD antibody (1:1500) from Cosmo Bio Ltd. (Catalog number: CAC-NM-DAD-001). The WST-1 assay was performed as previously described, γ H2AX foci staining was performed as previously described. Immunofluorescence staining of CPD was performed according to the protocol from the manufacturer (Cosmo Bio Ltd).
compound,measurement,setting,value
C[n+]1ccc(-c2c3nc(c(-c4cc[n+](C)cc4)c4ccc([nH]4)c(-c4cc[n+](C)cc4)c4nc(c(-c5cc[n+](C)cc5)c5ccc2[nH]5)C=C4)C=C3)cc1 [TMPYP4],potentiation of UVA-induced cytotoxicity,,not
CN(C)c1ccc(Nc2c3ccc(NC(=O)CCN4CCCC4)cc3nc3cc(NC(=O)CCN4CCCC4)ccc23)cc1 [BRACO-19],potentiation of UVA-induced cytotoxicity,,not
same,WST-1 raw signal (Figure 5d),"conc 1.31e-6, 5mJ/cm2 UV",2.4666 and 1.6857
same,WST-1 raw signal (Figure 5d),"conc 1.31e-6, 125mJ/cm2 UV",1.7146 and 2.5235
same,WST-1 raw signal (Figure 5d),"conc 1.31e-6, no UV",1.0028 and 1.1127 and 1.1944
same,WST-1 raw signal (Figure 5d),"conc 2.63e-6, 5mJ/cm2 UV",1.5923 and 2.1232
same,WST-1 raw signal (Figure 5d),"conc 2.63e-6, 125mJ/cm2 UV",1.7241 and 1.9009
same,WST-1 raw signal (Figure 5d),"conc 2.63e-6, no UV",1.0332 and 1.1578 and 1.2506
same,WST-1 raw signal (Figure 5d),"conc 5.25e-6, 5mJ/cm2 UV",2.5376 and 1.7122
same,WST-1 raw signal (Figure 5d),"conc 5.25e-6, 125mJ/cm2 UV",1.8158 and 1.6795
same,WST-1 raw signal (Figure 5d),"conc 5.25e-6, no UV",0.8877 and 1.1208 and 1.1731
same,WST-1 raw signal (Figure 5d),"conc 1.05e-5, 5mJ/cm2 UV",2.0499 and 1.7849
same,WST-1 raw signal (Figure 5d),"conc 1.05e-5, 125mJ/cm2 UV",1.734 and 1.5629
same,WST-1 raw signal (Figure 5d),"conc 1.05e-5, no UV",0.9118 and 1.1353 and 1.1139
same,WST-1 raw signal (Figure 5d),"conc 2.1e-5, 5mJ/cm2 UV",2.2151 and 1.3748
same,WST-1 raw signal (Figure 5d),"conc 2.1e-5, 125mJ/cm2 UV",1.3993 and 1.3857
same,WST-1 raw signal (Figure 5d),"conc 2.1e-5, no UV",0.9051 and 1.0979 and 1.0693
same,WST-1 raw signal (Figure 5d),"conc 4.2e-5, 5mJ/cm2 UV",1.7663 and 1.2587
same,WST-1 raw signal (Figure 5d),"conc 4.2e-5, 125mJ/cm2 UV",1.2502 and 1.0049
same,WST-1 raw signal (Figure 5d),"conc 4.2e-5, no UV",0.8968 and 1.0934 and 1.1351
same,WST-1 raw signal (Figure 5d),"conc 8.4e-5, 5mJ/cm2 UV",0.4969 and 0.3888
same,WST-1 raw signal (Figure 5d),"conc 8.4e-5, 125mJ/cm2 UV",0.4246 and 0.5991
same,WST-1 raw signal (Figure 5d),"conc 8.4e-5, no UV",0.3873 and 0.5407 and 0.5015
same,WST-1 raw signal (Figure 5d),"conc 1.64E-07, 5mJ/cm2 UV",2.3685 and 1.9812
same,WST-1 raw signal (Figure 5d),"conc 1.64E-07, 125mJ/cm2 UV",1.617 and 1.4273
same,WST-1 raw signal (Figure 5d),"conc 1.64E-07, no UV",1.0063 and 1.0872 and 1.153
same,WST-1 raw signal (Figure 5d),"conc 3.28E-07, 5mJ/cm2 UV",1.3974 and 1.689
same,WST-1 raw signal (Figure 5d),"conc 3.28E-07, 125mJ/cm2 UV",1.2981 and 1.6967
same,WST-1 raw signal (Figure 5d),"conc 3.28E-07, no UV",0.8955 and 1.1379 and 1.1636
same,WST-1 raw signal (Figure 5d),"conc 6.56E-07, 5mJ/cm2 UV",2.2078 and 2.2342
same,WST-1 raw signal (Figure 5d),"conc 6.56E-07, 125mJ/cm2 UV",1.8184 and 2.0816
same,WST-1 raw signal (Figure 5d),"conc 6.56E-07, no UV",1.0072 and 1.1785 and 1.064
"CN1CCC[C@H]1CCNC(=O)c1cn2c3c(c(N4CCC(c5cnccn5)C4)c(F)cc3c1=O)Oc1cc3ccccc3cc1-2 (stereo partly drawn) [CX-3543, quarfloxin]",potentiation of UVA-induced cytotoxicity,,Strong potentiation
same,WST-1 raw signal (Figure 5b),"conc 1.00E-07, 5mJ/cm2 UV",0.1176 and 0.1409 and 0.1492
same,WST-1 raw signal (Figure 5b),"conc 1.00E-07, 125mJ/cm2 UV",0.1326 and 0.1388 and 0.1325
same,WST-1 raw signal (Figure 5b),"conc 1.00E-07, no UV",0.3065 and 0.2985 and 0.3333
same,WST-1 raw signal (Figure 5b),"conc 1.25E-08, 5mJ/cm2 UV",0.2437 and 0.3248 and 0.2269
same,WST-1 raw signal (Figure 5b),"conc 1.25E-08, 125mJ/cm2 UV",0.1256 and 0.1309 and 0.1293
same,WST-1 raw signal (Figure 5b),"conc 1.25E-08, no UV",0.9466 and 1.0534 and 1.1298
same,WST-1 raw signal (Figure 5b),"conc 1.56E-09, 5mJ/cm2 UV",0.8994 and 0.9603 and 1.0971
same,WST-1 raw signal (Figure 5b),"conc 1.56E-09, 125mJ/cm2 UV",0.4201 and 0.4656 and 0.3751
same,WST-1 raw signal (Figure 5b),"conc 1.56E-09, no UV",1.1359 and 1.1204 and 1.1484
same,WST-1 raw signal (Figure 5b),"conc 2.00E-07, 5mJ/cm2 UV",0.1365 and 0.1282 and 0.1322
same,WST-1 raw signal (Figure 5b),"conc 2.00E-07, 125mJ/cm2 UV",0.1395 and 0.1322 and 0.1311
same,WST-1 raw signal (Figure 5b),"conc 2.00E-07, no UV",0.2081 and 0.2189 and 0.1938
same,WST-1 raw signal (Figure 5b),"conc 2.50E-08, 5mJ/cm2 UV",0.2095 and 0.1617 and 0.1535
same,WST-1 raw signal (Figure 5b),"conc 2.50E-08, 125mJ/cm2 UV",0.1433 and 0.1378 and 0.1358
same,WST-1 raw signal (Figure 5b),"conc 2.50E-08, no UV",0.8495 and 0.8987 and 0.779
same,WST-1 raw signal (Figure 5b),"conc 3.13E-09, 5mJ/cm2 UV",0.6485 and 0.7419 and 0.9883
same,WST-1 raw signal (Figure 5b),"conc 3.13E-09, 125mJ/cm2 UV",0.2369 and 0.2535 and 0.2676
same,WST-1 raw signal (Figure 5b),"conc 3.13E-09, no UV",1.0174 and 1.1372 and 1.1113
same,WST-1 raw signal (Figure 5b),"conc 3.91E-10, 5mJ/cm2 UV",1.0118 and 0.9721 and 1.5038
same,WST-1 raw signal (Figure 5b),"conc 3.91E-10, 125mJ/cm2 UV",0.8661 and 1.1363 and 0.97
same,WST-1 raw signal (Figure 5b),"conc 3.91E-10, no UV",1.0197 and 1.049 and 1.1065
same,WST-1 raw signal (Figure 5b),"conc 5.00E-08, 5mJ/cm2 UV",0.1533 and 0.1449 and 0.1376
same,WST-1 raw signal (Figure 5b),"conc 5.00E-08, 125mJ/cm2 UV",0.1545 and 0.1405 and 0.1347
same,WST-1 raw signal (Figure 5b),"conc 5.00E-08, no UV",0.5561 and 0.5613 and 0.5776
same,WST-1 raw signal (Figure 5b),"conc 6.25E-09, 5mJ/cm2 UV",0.5204 and 0.5393 and 0.4087
same,WST-1 raw signal (Figure 5b),"conc 6.25E-09, 125mJ/cm2 UV",0.1582 and 0.1598 and 0.1609
same,WST-1 raw signal (Figure 5b),"conc 6.25E-09, no UV",1.0374 and 1.1818 and 1.0522
same,WST-1 raw signal (Figure 5b),"conc 7.81E-10, 5mJ/cm2 UV",0.7587 and 1.1105 and 1.4362
same,WST-1 raw signal (Figure 5b),"conc 7.81E-10, 125mJ/cm2 UV",0.5029 and 0.7057 and 0.876
same,WST-1 raw signal (Figure 5b),"conc 7.81E-10, no UV",1.0762 and 1.1392 and 1.1311
